Test system: human tonsil histocultures
Format: cell-based
Conditions: for donors whose tissue responded by producing antigen-specific antibodies: antigen added to medium for 2 days, responding donors out of donors tested; for dose dependence of specific IgG response: antigen in the range of 10-100 ng/ml; for induction of antibody against the other antigen and effect on total IgG production: challenge by either TT or DT

Substance | donors whose tissue responded by producing antigen-specific antibodies | dose dependence of specific IgG response | induction of antibody against the other antigen and effect on total IgG production | absolute amount of anti-TT IgG in medium (varied from tissue to tissue)
diphtheria toxin [DT] | 17 of 24 | dose-dependent | did not induce the production of antibody against the other antigen nor did it increase total IgG production | 
tetanus toxoid | 42 out of 55 | dose-dependent | did not induce the production of antibody against the other antigen nor did it increase total IgG production | hundreds to several thousands
